For the series the following is noted: in vivo.

Consider `CC1(C)O[C@@H]2C[C@H]3[C@@H]4C[C@H](F)C5=CC(=O)C=C[C@]5(C)[C@@]4(F)[C@@H](O)C[C@]3(C)[C@]2(C(=O)CO)O1` [fluocinolone acetonide, (6,11,16)-6,9-difluoro-11,21-dihydroxy-16,17-[(1-methylethylidene)bis(oxy)]-pregna-1,-4-diene-3,20-dione], for which the “Percutaneous absorption of unchanged drug into the systemic circulation” value is listed as “minimal” and the Post-dose plasma concentrations entry is reported as “undetectably low”.
Turning to `Oc1ccc(O)cc1` [hydroquinone, 1,4-benzenediol], the “Percutaneous absorption of unchanged drug into the systemic circulation” value is given as “minimal” and the Post-dose plasma concentrations result was “undetectably low”. In addition, where the note is “human, 8 weeks”, the “Number of subjects with quantifiable plasma concentrations” value was 8 and the “Subjects with quantifiable plasma concentrations” value is on record as 18%.
Turning to `CC1=C(/C=C/C(C)=C/C=C/C(C)=C/C(=O)O)C(C)(C)CCC1` [tretinoin, (all-E)-3,7-dimethyl-9-(2,6,6-trimethyl-1-cyclohexen-1-yl)-2,4,6,8-nonatetraenoic acid], the “Percutaneous absorption of unchanged drug into the systemic circulation” value was “minimal”.

Source of the values: US9333172B2, “Topical skin care composition” (GALDERMA S.A., priority 2002, dated 2016).
